Literature values as cited in the PKSmart pharmacokinetics tables (Seal et al. 2025).

Test: Lombardo, Berellini, Obach 2018, Drug Metab Dispos 46:1466, doi 10.1124/dmd.118.082966
Conditions: human; for MRT / Vd / clearance / half-life: in vivo, iv; for fraction unbound: plasma

SMILES | MRT [h] | Vd [L/kg] | clearance [mL/min/kg] | half-life [h] | fraction unbound
CC(=O)[C@]1(O)Cc2c(O)c3c(c(O)c2[C@@H](O[C@H]2C[C@H](N4CC4)[C@H](OS(C)(=O)=O)[C@H](C)O2)C1)C(=O)c1ccccc1C3=O | 2.09 | 2.95 | 23.5 | 7.33 | 0.006
CC(C)(C)NC(=O)C1CC[C@H]2[C@@H]3C=CC4=CC(C(=O)O)CC[C@]4(C)[C@H]3CC[C@]12C (stereo partly specified) | 27 | 0.54 | 0.33 | 27 | –
CC(=O)OC1=C2C(C)[C@@H](OC(=O)C(O)C(NC(=O)OC(C)(C)C)c3ccccc3)C[C@@](O)([C@@H](OC(=O)c3ccccc3)[C@@H]3[C@]4(OC(C)=O)CO[C@@H]4C[C@@H]4C[C@@]43C1=O)C2(C)C (stereo partly specified) | 26.1 | 17 | 10.8 | 33.9 | –
CN[C@@H]1[C@@H](O)[C@@H](O[C@@H]2[C@@H](O)[C@H](O[C@H]3OC(CNCCO)=CC[C@H]3N)[C@@H](N)C[C@H]2NC(=O)C(O)CCN)OC[C@]1(C)O (stereo partly specified) | 3.2 | 0.22 | 1.14 | 3.4 | 0.84
COc1ccc(OC)c([C@H](O)CNC(=O)CN)c1 | 0.4 | 0.67 | 27.9 | 0.6 | 0.7
C[C@@H](Oc1cc(-n2cnc3ccc(CN4CCN(C)CC4)cc32)sc1C(N)=O)c1ccccc1C(F)(F)F | 10 | 12 | 20 | 10.3 | –
CCC(=O)O[C@]1(C(=O)SCF)[C@H](C)C[C@H]2[C@@H]3C[C@H](F)C4=CC(=O)C=C[C@]4(C)[C@@]3(F)[C@@H](O)C[C@@]21C | 3.9 | 3.6 | 17 | 6 | 0.1
O=C(O)C1/C(=C/CO)O[C@@H]2CC(=O)N12 (stereo partly specified) | 1 | 0.22 | 3.1 | 0.9 | –
O=C(O)C(CCc1ccccc1)NC1CCCN2CCCC(C(=O)O)N2C1=O (stereo unspecified) | 29.5 | 3.7 | 2.1 | 50.6 | –
CC(CN(C)C)CN1c2ccccc2CCc2ccccc21 (stereo unspecified) | 17 | 16 | 16 | 23 | 0.051
CC[C@H]1OC(=O)C(C)[C@@H](O[C@H]2C[C@@](C)(OC)[C@@H](O)[C@H](C)O2)[C@H](C)[C@@H](O[C@@H]2O[C@H](C)C[C@H](N(C)C)[C@H]2O)[C@](C)(O)C[C@@H](C)CN(C)[C@H](C)[C@@H](O)[C@]1(C)O (stereo partly specified) | 57 | 33 | 10 | 69 | –
COC(=O)C1(OC(=O)c2cncn2[C@H](C)c2ccccc2)CC1 | – | – | 50.1 | 0.24 | –
CCOC(=O)C(CCc1ccccc1)NC(C)C(=O)N1Cc2cc(OC)c(OC)cc2CC1C(=O)O (stereo unspecified) | – | – | 6.3 | 1.3 | 0.12
O=c1[nH]c(O)cn1/N=C/c1ccc(-c2ccc([N+](=O)[O-])cc2)o1 | 14 | 0.37 | 0.43 | 10 | –
C[N+](C)(C)NCCC(=O)[O-] | 4.3 | 0.7 | 2.8 | 6.2 | –
C=CCN1CCC[C@H]1CNC(=O)c1cc(S(=O)(=O)NC)c(N)cc1OC | 7 | 2.3 | 5.47 | 4.8 | –
NCCCCCC(=O)O | 2.6 | 0.39 | 2.5 | 4.9 | 0.92

SMILES | MRT [h] | Vd [L/kg] | clearance [mL/min/kg] | half-life [h] | fraction unbound
CC(=O)O[C@@]12CO[C@@H]1C[C@H](O)[C@@]1(C)C(=O)C(=O)C3C(C)[C@@H](OC(=O)C(O)C(NC(=O)OC(C)(C)C)c4ccccc4)C[C@@](O)([C@@H](OC(=O)c4ccccc4)[C@H]21)C3(C)C (stereo partly specified) | 2.5 | 2.1 | 14 | 11 | 0.04
C=CC(=O)N1CCCC(n2nc(-c3ccc(Oc4ccccc4)cc3)c3c(N)ncnc32)C1 (stereo unspecified) | – | – | – | – | 0.03
C[C@@H](NCCCc1cccc(C(F)(F)F)c1)c1cccc2ccccc12 | 16 | 17.6 | 18.3 | 19.9 | 0.05
CN(C)CCO[C@]1(c2ccccc2)C[C@H]2CC[C@]1(C)C2(C)C | 26.6 | 7.7 | 4.88 | 26.6 | 0.05
O=C(NCCN1CCN=C1c1ccncc1)Nc1ccc(C(=O)O)cc1 | 3.52 | 0.35 | 1.67 | 4.9 | –
CC(NCc1ccc(OCc2cccc(F)c2)cc1)C(N)=O (stereo unspecified) | 31.2 | 2.19 | 1.17 | 21.7 | –
C#CCC(Cc1cnc2nc(N)nc(N)c2n1)c1ccc(C(=O)NC(CCC(=O)O)C(=O)O)cc1 (stereo unspecified) | 3.7 | 1.01 | 4.35 | 15 | 0.33
CNC(=O)c1c(I)c(NC(C)=O)c(I)c(C(=O)O)c1I | 1.2 | 0.17 | 2.4 | 1.3 | –
O=C(O)C1=C(C[n+]2ccc(CCS(=O)(=O)[O-])cc2)CSC2C(NC(=O)C(NC(=O)c3[nH]cnc3C(=O)O)c3ccccc3)C(=O)N12 (stereo unspecified) | 2.1 | 0.21 | 1.7 | 1.8 | –
N=C(N)NC(CS)C(=O)O (stereo unspecified) | 1.39 | 0.25 | 2.88 | 1.34 | –
CC[C@@]1(O)C(=O)OCc2c1cc1n(c2=O)Cc2cc3cc(O)ccc3nc2-1 | 1.63 | 0.22 | 2.23 | 1.67 | –
CCCCc1nc(Cl)c(CO)n1Cc1ccc(-c2ccccc2-c2nnn[nH]2)cc1 | 0.75 | 0.37 | 8.2 | 1.8 | –
C=C[C@@H]1CNCC[C@@H]1CCCc1ccnc2ccc(OC)cc12 | 15.6 | 24.4 | 26 | 12.1 | –
COc1ccc(CC2c3cc(OC)c(OC)cc3CC[N+]2(C)CCC(=O)OCCCCCOC(=O)CC[N+]2(C)CCc3cc(OC)c(OC)cc3C2Cc2ccc(OC)c(OC)c2)cc1OC (stereo unspecified) | 0.29 | 0.1 | 5.7 | 0.31 | 0.52
CC(C(=O)O)c1ccc(C(=O)c2cccs2)cc1 (stereo unspecified) | 0.88 | 0.04 | 0.76 | 2.1 | –
O=C(O[C@H]1C[N+]2(CCCOc3ccccc3)CCC1CC2)C(O)(c1cccs1)c1cccs1 | 1.76 | 4.3 | 48.5 | – | –
Cc1ccc(-c2ncc(Cl)cc2-c2ccc(S(C)(=O)=O)cc2)cn1 | 32 | 1.5 | 0.79 | 26 | 0.081
